Measurements published in patent US20080145313A1, “Compositions and Methods for the Treatment and Prevention of Neoplastic Disorders” (Genesis Research & Development Corporation Limited, priority 2006, published 2008).

Key:
[1] = test system: YBX1 (p47) and p37; assay: YBX1 protein level by Western blotting in A549 cells; type: cell-based, human; conditions: 10 nM siRNA; 24 h post-transfection; compared with control siRNA
Protocol: Cell lysates were prepared from A549 cells 24 h post-transfection with 10 nM YBX1-specific siRNA (SEQ ID NO: 4982 (DNA), and SEQ ID NO: 5277 (RNA) was labeled 94; SEQ ID NO: 4983 (DNA), and SEQ ID NO: 5278 (RNA) was labeled 95) or control siRNA (SEQ ID NO: 4804 (DNA), and SEQ ID NO: 5301 (RNA); labeled 81). Following Western blotting onto Immobilon-P PVDF filer (Millipore, Bedford Mass.), membranes were probed with a goat anti-human polyclonal antibody specific for YBX1 (AbCam plc, Cambridge, UK), at a concentration of […]. HRP-conjugated donkey anti-goat IgG ([…]; Santa Cruz) was used as a secondary antibody, and signal was detected with an ECL Plus Western blotting Detection System (GE Healthcare, UK) using a Typhoon Scanner (Molecular Dynamics, GE Healthcare, UK).

[2] = test system: MCF-7 cells; assay: Growth inhibition of siRNA-transfected MCF-7 cells, SYBR Green I DNA content; type: cell-based, human; conditions: 10 nM siRNA; standardized against control siRNA
Protocol: A549 cells (human lung cancer cell line; ATCC No. CCL-185), SK-MeI-5 cells (human melanoma cell line; ATCC No. HTB-70), MCF-7 cells (human adenocarcinoma cell line; ATCC No. HTB-22), HCT-116 cells (colorectal carcinoma; ATCC CCL-247) and HCT-116 p53 null cells (derived from ATCC No. CCL-247; Bunz et al., Science 282:1497-1501, 1998) were cultured in RPMI 1640 medium with 10% v/v heat-inactivated fetal calf serum (FCS). Cells were seeded at a density of 5×10^4 cells/cm^2 in multi-well tissue culture plates. […] The cellular DNA content was measured using a SYBR Green I-based fluorometric assay at 24, 48, 72 and 96 hours after transfection (120 hours for the MCF-7 cells), as follows. […]
The following day, cell lysates were mixed thoroughly, and DNA fluorescence was measured with a Wallac Victor^2 plate reader (Turku, Finland) set at an excitation frequency of 485 nm and measuring emission at 535 nm.
siRNA-mediated RNAi was also determined on a panel of different cell lines. A549, SK-MeI-5, wt HCT-116, HCT-116−/−p53 and MCF-7 cells were transfected with 10 nM siRNAs targeting YBX-1 and growth inhibition determined as described above. […]

Row | Substance | YBX1 (p47) and p37 protein levels [1] | growth inhibition, MCF7 cells [2]
1 | SEQ ID NO: 4983: siRNA targeting YBX1 (chain 1 TACTGTGGTCGACGCCCATAGGGTC; chain 2 UACUGUGGUCGACGCCCAUAGGGUC; chemistry not given here; one strand in two spellings) | reduction in YBX1 (p47) and p37 protein levels | 
2 | SEQ ID NO: 4982: siRNA targeting YBX1 (chain 1 TTTGCTGGTAATTGCGTGGAGGACC; chain 2 UUUGCUGGUAAUUGCGUGGAGGACC; chemistry not given here; one strand in two spellings) | reduction in YBX1 (p47) and p37 protein levels | ++ (At least 50% inhibition)
